In patent publication US8030498B2, “Benzoylpyrazole compounds and herbicides containing them” (Ishihara Sangyo Kaisha, Ltd., priority 2005, dated 2011):

Legend:
[1] = test system: barnyardgrass (Echinochloa crus-galli L.); assay: Test Example 1: foliar treatment, growth inhibition rate, barnyardgrass; type: in vivo; conditions: visually observed 17th to 23rd day after application
Method in brief: (§1)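 Seeds were sown in upland field soil in pots. At the target leaf stage (corn 2.0–3.5; greenfoxtail 1.0–3.0; rice 1.0–2.5; wheat 1.7–3.4), the formulated compound, diluted at a water volume of 500 L/ha with 0.1 vol % spreader, was applied by small sprayer. Plants were rated by eye on days 17–23.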

[2] = test system: crabgrass (Digitaria sanguinalis L.); assay: Test Example 1: foliar treatment, growth inhibition rate, crabgrass; type: in vivo; conditions: visually observed 17th to 23rd day after application
Method in brief: (§2)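 Visual scoring of growth inhibition, 0% (untreated) to 100% (complete kill), on days 17–23 following post-emergence spray of formulated compound in water (500 L/ha, 0.1 vol % spreader); plants treated at set leaf stages, e.g. corn 2.0–3.5, wheat 1.7–3.4.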

[3] = test system: greenfoxtail (Setaria viridis L.); assay: Test Example 1: foliar treatment, growth inhibition rate, greenfoxtail; type: in vivo; conditions: visually observed 17th to 23rd day after application
Method in brief: (§3)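 Visual growth inhibition rating, 0% (as untreated) to 100% (complete kill), taken 17–23 d after foliar spray. Compound was formulated as wettable powder or EC, diluted to 500 L/ha water with 0.1 vol % agricultural spreader, and applied to pot-grown seedlings of corn (2.0–3.5 leaf), greenfoxtail (1.0–3.0), rice (1.0–2.5) and wheat (1.7–3.4).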

[4] = test system: redroot pigweed (Amaranthus retroflexus L.); assay: Test Example 1: foliar treatment, growth inhibition rate, redroot pigweed; type: in vivo; conditions: visually observed 17th to 23rd day after application
Method in brief: as §2

[5] = test system: prickly sida (Sida spinosa L.); assay: Test Example 1: foliar treatment, growth inhibition rate, prickly sida; type: in vivo; conditions: visually observed 17th to 23rd day after application
Method in brief: as §2

[6] = test system: velvetleaf (Abutilon theophrasti MEDIC.); assay: Test Example 1: foliar treatment, growth inhibition rate, velvetleaf; type: in vivo; conditions: visually observed 17th to 23rd day after application
Method in brief: as §1

rice (Oryza sativa L.) = assay: Test Example 1: foliar treatment, growth inhibition rate, rice; type: in vivo; conditions: visually observed 17th to 23rd day after application
Method in brief: as §3

wheat (Triticum spp.) = assay: Test Example 1: foliar treatment, growth inhibition rate, wheat; type: in vivo; conditions: visually observed 17th to 23rd day after application
Method in brief: as §3

corn (Zea mays L.) = assay: Test Example 1: foliar treatment, growth inhibition rate, corn; type: in vivo; conditions: visually observed 17th to 23rd day after application
Method in brief: as §3

[7] = test system: soybean (Glycine max Merr.); assay: Test Example 1: foliar treatment, growth inhibition rate, soybean; type: in vivo; conditions: visually observed 17th to 23rd day after application
Method in brief: as §2

barnyardgrass = assay: Test Example 2: soil application on the day after sowing, growth inhibition rate, barnyardgrass; type: in vivo, Echinochloa crus-galli L.; conditions: 250 g/ha active ingredient, observed on 19th to 24th day
Method in brief: (§4)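 Upland soil pots sown with crop and weed seeds; next day wettable powder or emulsifiable concentrate at prescribed active-ingredient amounts, diluted to 500 L/ha water, sprayed onto soil. Growth inhibition scored visually 19–24 days later, 0 (as untreated) to 100% (complete kill).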

crabgrass = assay: Test Example 2: soil application on the day after sowing, growth inhibition rate, crabgrass; type: in vivo, Digitaria sanguinalis L.; conditions: 250 g/ha active ingredient, observed on 19th to 24th day
Method in brief: as §4

greenfoxtail = assay: Test Example 2: soil application on the day after sowing, growth inhibition rate, greenfoxtail; type: in vivo, Setaria viridis L.; conditions: 250 g/ha active ingredient, observed on 19th to 24th day
Method in brief: as §4

redroot pigweed = assay: Test Example 2: soil application on the day after sowing, growth inhibition rate, redroot pigweed; type: in vivo, Amaranthus retroflexus L.; conditions: 250 g/ha active ingredient, observed on 19th to 24th day
Method in brief: as §4

prickly sida = assay: Test Example 2: soil application on the day after sowing, growth inhibition rate, prickly sida; type: in vivo, Sida spinosa L.; conditions: 250 g/ha active ingredient, observed on 19th to 24th day
Method in brief: as §4

velvetleaf = assay: Test Example 2: soil application on the day after sowing, growth inhibition rate, velvetleaf; type: in vivo, Abutilon theophrasti MEDIC.; conditions: 250 g/ha active ingredient, observed on 19th to 24th day
Method in brief: as §4

rice = assay: Test Example 2: soil application on the day after sowing, growth inhibition rate, rice; type: in vivo, Oryza sativa L.; conditions: 250 g/ha active ingredient, observed on 19th to 24th day
Method in brief: as §4

wheat = assay: Test Example 2: soil application on the day after sowing, growth inhibition rate, wheat; type: in vivo, Triticum spp.; conditions: 250 g/ha active ingredient, observed on 19th to 24th day
Method in brief: as §4

corn = assay: Test Example 2: soil application on the day after sowing, growth inhibition rate, corn; type: in vivo, Zea mays L.; conditions: 250 g/ha active ingredient, observed on 19th to 24th day
Method in brief: as §4

soybean = assay: Test Example 2: soil application on the day after sowing, growth inhibition rate, soybean; type: in vivo, Glycine max Merr.; conditions: 250 g/ha active ingredient, observed on 19th to 24th day
Method in brief: as §4

Row | Compound | Growth inhibition rate (%) Barnyardgrass ([1]; 31 g/ha active ingredient) [%] | Growth inhibition rate (%) Crabgrass ([2]; 31 g/ha active ingredient) [%] | Growth inhibition rate (%) Greenfoxtail ([3]; 31 g/ha active ingredient) [%] | Growth inhibition rate (%) redroot pigweed ([4]; 31 g/ha active ingredient) [%] | Growth inhibition rate (%) Prickly sida ([5]; 31 g/ha active ingredient) [%] | Growth inhibition rate (%) Velvetleaf ([6]; 31 g/ha active ingredient) [%] | Growth inhibition rate (%) Rice (rice (Oryza sativa L.); 31 g/ha active ingredient) [%] | Growth inhibition rate (%) Wheat (wheat (Triticum spp.); 31 g/ha active ingredient) [%] | Growth inhibition rate (%) Corn (corn (Zea mays L.); 31 g/ha active ingredient) [%] | Growth inhibition rate (%) Soybean ([7]; 31 g/ha active ingredient) [%] | Growth inhibition rate (%) Barnyardgrass (barnyardgrass) [%] | Growth inhibition rate (%) Crabgrass (crabgrass) [%] | Growth inhibition rate (%) Greenfoxtail (greenfoxtail) [%] | Growth inhibition rate (%) redroot pigweed (redroot pigweed) [%] | Growth inhibition rate (%) Prickly sida (prickly sida) [%] | Growth inhibition rate (%) Velvetleaf (velvetleaf) [%] | Growth inhibition rate (%) Rice (rice) [%] | Growth inhibition rate (%) Wheat (wheat) [%] | Growth inhibition rate (%) Corn (corn) [%] | Growth inhibition rate (%) Soybean (soybean) [%] | also measured
1 | CCOc1c(S(C)(=O)=O)ccc(C(=O)c2cnn(CC)c2OC(=O)SCC)c1C [compound 58] | 95 | 98 | 100 | 90 | 70 | 100 | 80 | 40 | 0 | 98 | 60 | 100 | 70 | 90 | 70 | 10 | 70 | 0 | 0 | 0 | 
2 | C=CCSC(=O)Oc1c(C(=O)c2ccc(S(C)(=O)=O)c(C(=O)OC)c2C)cnn1CC [compound 99] | 98 | 100 | 100 | 98 | 100 | 98 | 95 | 60 | 50 | 98 | 100 | 100 | 100 | 95 | 100 | 100 | 100 | 0 | 0 | 40 | 
3 | CCSC(=O)Oc1c(C(=O)c2ccc(S(C)(=O)=O)c(OCCC3OCCO3)c2Cl)cnn1CC [compound 221] |  |  |  |  |  |  |  |  |  |  | 80 | 100 | 70 | 100 | 60 | 60 | 80 | 0 | 0 | 0 | Growth inhibition rate (%) Barnyardgrass ([1]; 63 g/ha active ingredient): 100%; Growth inhibition rate (%) Crabgrass ([2]; 63 g/ha active ingredient): 50%; Growth inhibition rate (%) Greenfoxtail ([3]; 63 g/ha active ingredient): 50%; Growth inhibition rate (%) redroot pigweed ([4]; 63 g/ha active ingredient): 80%; Growth inhibition rate (%) Prickly sida ([5]; 63 g/ha active ingredient): 40%; Growth inhibition rate (%) Velvetleaf ([6]; 63 g/ha active ingredient): 60%; Growth inhibition rate (%) Rice (rice (Oryza sativa L.); 63 g/ha active ingredient): 20%; Growth inhibition rate (%) Wheat (wheat (Triticum spp.); 63 g/ha active ingredient): 0%; Growth inhibition rate (%) Corn (corn (Zea mays L.); 63 g/ha active ingredient): 0%; Growth inhibition rate (%) Soybean ([7]; 63 g/ha active ingredient): 100%
4 | CCC(C)SC(=O)Oc1c(C(=O)c2ccc(S(C)(=O)=O)c(C(=O)OC)c2Cl)cnn1CC (centres unmarked) [compound 220] |  |  |  |  |  |  |  |  |  |  | 95 | 95 | 100 | 100 | 95 | 95 | 100 | 0 | 0 | 0 | Growth inhibition rate (%) Barnyardgrass ([1]; 63 g/ha active ingredient): 100%; Growth inhibition rate (%) Crabgrass ([2]; 63 g/ha active ingredient): 60%; Growth inhibition rate (%) Greenfoxtail ([3]; 63 g/ha active ingredient): 70%; Growth inhibition rate (%) redroot pigweed ([4]; 63 g/ha active ingredient): 100%; Growth inhibition rate (%) Prickly sida ([5]; 63 g/ha active ingredient): 90%; Growth inhibition rate (%) Velvetleaf ([6]; 63 g/ha active ingredient): 90%; Growth inhibition rate (%) Rice (rice (Oryza sativa L.); 63 g/ha active ingredient): 80%; Growth inhibition rate (%) Wheat (wheat (Triticum spp.); 63 g/ha active ingredient): 0%; Growth inhibition rate (%) Corn (corn (Zea mays L.); 63 g/ha active ingredient): 0%; Growth inhibition rate (%) Soybean ([7]; 63 g/ha active ingredient): 100%
5 | CCSC(=O)Oc1c(C(=O)c2ccc(S(C)(=O)=O)c(CN(C)CC#N)c2C)cnn1C [compound 210] | 80 | 30 | 50 | 10 | 70 | 60 | 50 | 0 | 0 | 50 | 0 | 10 | 0 | 20 | 40 | 0 | 0 | 0 | 0 | 0 | 
6 | CCSC(=O)Oc1c(C(=O)c2ccc(S(C)(=O)=O)c(C(=O)OC)c2Cl)cnn1C [compound 27] | 100 | 80 | 100 | 95 | 70 | 80 | 80 | 10 | 40 | 90 | 100 | 95 | 98 | 100 | 100 | 95 | 90 | 10 | 0 | 0 | 
7 | CCSC(=O)Oc1c(C(=O)c2ccc(S(C)(=O)=O)c(C#N)c2C)cnn1C [compound 82] | 70 | 40 | 60 | 60 | 50 | 70 | 40 | 0 | 0 | 70 | 30 | 70 | 20 | 50 | 80 | 20 | 10 | 0 | 0 | 0 | 
